Results from patent US20210154372A1, “MEDICAL DEVICE WITH DRUG-ELUTING COATING AND INTERMEDIATE LAYER” (C.R. Bard, Inc., priority 2017, published 2021).

Tests used:
[1] = octanol/water; cited from earlier work
[2] = stability of additive with paclitaxel under ethylene oxide sterilization, heating and aging; settings: reacted with paclitaxel
[3] = test system: tissues at the target site; assay: drug absorption by tissue after 0.2-2 minute deployment of coated balloon; format: in vivo; settings: coating with paclitaxel, after 0.2-2 minutes of deployment
[4] = BSA added; cited from earlier work
Serum albumin = settings: cited from earlier work

In the case of COc1ccc(O)c(C(C)(C)C)c1 [Butylated hydroxyanisole], the “log P” value [1] is given as 1.31.

With O=C(O)c1ccccc1 [benzoic acid] the “stability under ethylene oxide sterilization, heating, and aging process” value [2] was “not stable”.

For O=C1O[C@H](CO)[C@@H](O)[C@H](O)[C@H]1O [gluconolactone], the “drug absorption by tissue” value [3] was “unexpectedly high”.

In the case of CC(=O)O[C@H]1C(=O)[C@@]2(C)[C@H]([C@H](OC(=O)c3ccccc3)[C@]3(O)C[C@H](OC(=O)[C@H](O)[C@@H](NC(=O)c4ccccc4)c4ccccc4)C(C)=C1C3(C)C)[C@]1(OC(C)=O)CO[C@@H]1C[C@@H]2O [paclitaxel], the “increase of solubility in PBS with the addition of BSA” value [4] is given as “over 20 fold”.

For CO[C@H]1C[C@@H]2CC[C@@H](C)[C@@](O)(O2)C(=O)C(=O)N2CCCC[C@H]2C(=O)O[C@H]([C@H](C)C[C@@H]2CC[C@@H](O)[C@H](OC)C2)CC(=O)[C@H](C)/C=C(\C)[C@@H](O)[C@@H](OC)C(=O)[C@H](C)C[C@H](C)/C=C/C=C/C=C/1C [rapamycin], the protein bound (Serum albumin) is listed as 92% and the “share of protein binding that is to albumin” value (Serum albumin; primarily to albumin) is listed as 97%.

With O=C1O[C@H](CO)[C@@H](O)[C@H]1O [ribonic acid lactone] the “drug absorption by tissue” value [3] was “unexpectedly high”.

In the case of OC[C@@H](O)[C@@H](O)[C@H](O)[C@@H](O)CO [sorbitol], the “log P” value [1] is given as −4.67.

For PEG-20 sorbitan monolaurate [Tween 20], the “log P” value [1] is listed as “about 3.0”.
